Measurements as given in PubChem BioAssay (NCI).
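Where inhibition never reached the appropriate level, the endpoint shown equals the highest concentration tested. Otherwise, values were interpolated linearly from a five-concentration, 48-hour dose response in 96-well plates. TGI marks complete inhibition of growth.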

How the values were obtained:
Assay in all cases: inhibition of tumour cell growth, NCI panel, 48 h
COLO 205 colon = system: COLO 205 colon
RXF 393 renal = system: RXF 393 renal
SNB-19 CNS = system: SNB-19 CNS
NCI/ADR-RES ovarian = system: NCI/ADR-RES ovarian
SR leukemia = system: SR leukemia
PC-3 prostate = system: PC-3 prostate
HCT-15 colon = system: HCT-15 colon
HT29 colon = system: HT29 colon
DU-145 prostate = system: DU-145 prostate
U251 CNS = system: U251 CNS
HL-60(TB) leukemia = system: HL-60(TB) leukemia
CCRF-CEM leukemia = system: CCRF-CEM leukemia
NCI-H226 lung = system: NCI-H226 lung

Row | Structure (SMILES) | TGI (COLO 205 colon) [µM] | TGI (RXF 393 renal) [µM] | TGI (SNB-19 CNS) [µM] | TGI (NCI/ADR-RES ovarian) [µM] | TGI (SR leukemia) [µM] | TGI (PC-3 prostate) [µM] | TGI (HCT-15 colon) [µM] | TGI (HT29 colon) [µM] | TGI (DU-145 prostate) [µM] | TGI (U251 CNS) [µM] | TGI (HL-60(TB) leukemia) [µM] | TGI (CCRF-CEM leukemia) [µM] | TGI (NCI-H226 lung) [µM]
1 | COC(=O)[C@@H]1CCCN1CCN1CCC[C@H]1C(=O)OC | > 100 | > 100 | > 100 | > 100 | 86.6 | > 100 | > 100 | > 100 | > 100 | > 100 | – | – | –
2 | O=C1OC2(OC2c2ccccc2)c2ccccc21 (centres undefined) | > 100 | > 100 | > 100 | – | > 100 | – | > 100 | > 100 | – | > 100 | > 100 | > 100 | > 100
3 | CCOP(=O)(OCC)c1c(C(=O)OC)cc(=O)[nH]c1-c1ccc(C)cc1 | 15.2 | 27.3 | > 54.3 | > 57.5 | 11.5 | 34.2 | 27.2 | 42.1 | 17.5 | 29.3 | – | 6.91 | 29.6
4 | CC(=O)C1=C(C)NC2C=CC=CN12 (centres undefined) | > 100 | > 100 | > 100 | – | > 100 | – | > 100 | > 100 | – | > 100 | > 100 | > 100 | > 100
5 | O=C(Cc1ccccc1)NN1C(=O)/C(=C\c2cccc(O)c2)SC1=Nc1ccccc1 | > 100 | > 100 | > 100 | > 100 | – | – | > 100 | > 100 | > 100 | > 100 | – | – | > 100
6 | CCCC(C)NC1=C(NC(C)=O)C(=O)c2ccccc2C1=O (centres undefined) | > 100 | > 100 | > 100 | – | > 100 | – | > 100 | > 100 | – | > 100 | > 100 | > 100 | > 100
7 | O=C(CSc1nnc(Cc2ccccc2)o1)Nc1ccc([N+](=O)[O-])cc1 | > 100 | > 100 | – | – | – | – | > 100 | > 100 | – | > 100 | > 100 | > 100 | > 100
8 | COC(=O)N/N=C(\C)C(CN1CCCCC1)C(C1=C(O)c2ccccc2OC1)c1ccccc1 (centres undefined) | > 100 | > 100 | > 100 | – | > 100 | – | > 100 | > 100 | – | > 100 | > 100 | > 100 | > 100
9 | O=C1c2ccccc2CCCCCCCCCCC12OCCCO2 | 38.1 | 33.7 | 77.5 | – | – | – | 92.3 | 42.9 | – | > 100 | 40.1 | 83.3 | 97.2
10 | O=c1[nH]nc(Cc2ccc([N+](=O)[O-])cc2)n1CCO | > 100 | – | > 100 | > 100 | – | > 100 | > 100 | > 100 | > 100 | > 100 | > 100 | – | > 100
11 | N#Cc1c(-c2ccccc2)nc(-c2ccccc2)sc1=S | > 100 | > 100 | > 100 | > 100 | – | – | > 100 | > 100 | > 100 | > 100 | > 100 | > 100 | > 100
12 | O=c1nc2c(c(-c3ccccc3Cl)[nH]1)COC/C2=C\c1ccccc1Cl | > 100 | > 100 | > 100 | > 100 | – | > 100 | > 100 | > 100 | > 100 | > 100 | > 100 | > 100 | > 100
13 | O=C1c2ccccc2C(=O)N1Cc1ccccc1-c1c2nc(c(-c3ccccc3CN3C(=O)c4ccccc4C3=O)c3ccc([nH]3)c(-c3ccccc3CN3C(=O)c4ccccc4C3=O)c3nc(c(-c4ccccc4CN4C(=O)c5ccccc5C4=O)c4ccc1[nH]4)C=C3)C=C2 | > 100 | > 100 | – | – | > 100 | – | > 100 | > 100 | – | > 100 | > 100 | > 100 | > 100
14 | CC1CCOc2ccc(cc2)C=Nc2ccc(cc2)CCc2ccc(cc2)N=Cc2ccc(cc2)OCC1 (centres undefined) | > 100 | > 100 | > 100 | > 100 | > 100 | > 100 | > 100 | > 100 | > 100 | > 100 | – | > 100 | > 100
15 | CN(C)c1ccc(C2SCC(=O)N2NS(=O)(=O)c2cccc(C(=O)O)c2)cc1 (centres undefined) | > 100 | > 100 | > 100 | – | – | > 100 | > 100 | > 100 | > 100 | > 100 | > 100 | > 100 | > 100
16 | O=C1NC(N/N=C/C(O)C(O)C(O)CO)=N/C1=C\c1ccco1 (centres undefined) | > 100 | > 100 | > 100 | > 100 | – | – | > 100 | > 100 | > 100 | > 100 | > 100 | > 100 | > 100
17 | Oc1cc(C2OCCCO2)cc(O)c1O | > 100 | – | > 100 | – | > 100 | – | > 100 | > 100 | – | > 100 | > 100 | > 100 | > 100
18 | Cc1cn(C(Cc2ccccc2)OCCO)c(=O)[nH]c1=O (centres undefined) | > 100 | > 100 | > 100 | > 100 | > 100 | > 100 | > 100 | > 100 | > 100 | > 100 | – | > 100 | > 100
19 | C[C@H](N)C(=O)Nc1ccc(-c2nc3ccccc3s2)cc1 | 33.1 | > 100 | 49.6 | > 100 | 31.2 | 63.7 | 36.2 | 38.2 | 38.5 | 32.2 | – | 24.8 | 97.8
20 | CN(NC(=O)c1cccs1)C1=NCCCN1 | > 100 | > 100 | > 100 | > 100 | > 100 | > 100 | > 100 | > 100 | – | > 100 | > 100 | > 100 | > 100
